According to patent US8198317B2, “Methylenedioxy phenolic compounds and their use to treat disease” (The Ohio State University Research Foundation, priority 2008, dated 2012):

Tests used:
[1] = tested on: Humans; test: Treatment of established atherosclerosis in humans (Example 21); type: in vivo, human; details: oral, in excess of 12 months
Source text: Individuals with established atherosclerosis with evidence of plaque in the coronary arteries, carotid arteries or peripheral arteries are known to be at risk for future cardiovascular events such as heart attacks and strokes. These individuals are on treatments such as statins and anti-hypertensive agents such as ACE inhibitors, diuretics or calcium channel blockers. They also will receive an acceptable dose of a composition comprising a compound of the present invention in an acceptable carrier orally and chronically for durations in excess of 12 months. In one study, 3,4-methylenedioxy phenyl acetate (INV 73); 3,4-methylenedioxy-6-nitrophenol (INV 74); 3,4-methylenedioxy-6-nitrophenyl acetate (INV 75); 3,4-Methylenedioxy 6-nitro phenyl lipoate (INV-7465) or 3,4-Methylenedioxy phenyl lipoate (INV-7065) are administered to these individuals. A repeat IVUS measurement is made at the end of the treatment period to assess the effect of the infusion of the composition on coronary atherosclerosis in the target vessel.

[2] = tested on: Humans; test: Treatment of atherosclerosis in humans, primary prevention (Example 22); type: in vivo, human; details: oral, in excess of 12 months
Source text: Individuals with risk factors for atherosclerosis such as family history, hypertension and high cholesterol are known to be at risk for future cardiovascular events such as heart attacks and strokes. These individuals are on primary prevention treatments such as hypolipidemic drug therapy such as statins aspirin and anti-hypertensive agents such as ACE inhibitors, diuretics or calcium channel blockers. They also will receive an acceptable dose of a composition comprising a compound of the present invention in an acceptable carrier orally chronically for durations in excess of 12 months. In one study, 3,4-methylenedioxy phenyl acetate (INV 73); 3,4-methylenedioxy-6-nitrophenol (INV 74); 3,4-methylenedioxy-6-nitrophenyl acetate (INV 75); 3,4-Methylenedioxy 6-nitro phenyl lipoate (INV-7465) or 3,4-Methylenedioxy phenyl lipoate (INV-7065) are administered to these individuals. A repeat IVUS measurement is made at the end of the treatment period to assess the effect of the infusion of the composition on coronary atherosclerosis in the target vessel.

[3] = tested on: Patients; test: Treatment of dyslipidemia in diabetic patients (Example 25); type: in vivo, human; details: oral, 12 months
Source text: Individuals with Type I and Type II diabetes are at risk for future cardiovascular events such as heart attacks, strokes and kidney disease. These individuals often have abnormalities in lipids such as elevations in triglycerides and VLDL cholesterol. They are on treatments such as hypolipidemic drug therapy such as statins and fibrates (Gemfibrozil or Fenofibrate) to lover cholesterol levels in conjunction with glycemia lowering strategies such as Insulin, PPAR γ agents, Metformin or sulfonylurea therapy. In addition to these treatments they will also receive an acceptable dose of a composition comprising a compound of the present invention in an acceptable carrier orally chronically for durations in excess of 12 months. In one study, (3,4-methylenedioxy phenyl acetate (INV 73); 3,4-methylenedioxy-6-nitrophenol (INV 74); 3,4-methylenedioxy-6-nitrophenyl acetate (INV 75); are administered to these individuals. The patients undergo lipid measurements at baseline and at the end of treatment for a 12 month duration. At the end of 12 months of treatment, there is lowering of VLDL cholesterol and a decrease in triglycerides.

[4] = tested on: Humans; test: Prevention or delay of onset of atherosclerosis in humans (Example 23); type: in vivo, human; details: 2 mg/kg to 50 mg/kg iv or im, one to six months
Experimental: Individuals with documented risk factors for atherosclerosis and having high plasma cholesterol levels have a ultrasound analysis of the coronary (IVUS), carotid (IMT) or popliteal arteries to establish a baseline measurement. A portion of these individuals are […] administered a composition comprising a compound of the present invention in an acceptable carrier at a dose of 2 mg/kg to 50 mg/kg intravenously (iv) or intramuscular (im) I to 3 times per week over a period of approximately one to six months. The following compounds are administered to these individuals: 3,4-methylenedioxy phenyl acetate (INV 73); 3,4-methylenedioxy-6-nitrophenol (INV 74); 3,4-methylenedioxy-6-nitrophenyl acetate (INV 75); 3,4-Methylenedioxy 6-nitro phenyl lipoate (INV-7465) or 3,4-Methylenedioxy phenyl lipoate (INV-7065). The other individuals receive the carrier alone. A new ultrasound analysis at the end of the treatment period indicates higher levels of plaque in the vessels of individuals receiving the carrier.

[5] = tested on: Patients; test: Treatment of patients with Type I and Type II diabetes (Example 24); type: in vivo, human; details: diabetic patients, oral, 12 months
Source text: Individuals with Type I and Type II diabetes are at risk for future cardiovascular events such as heart attacks, strokes and kidney disease. These individuals are on prevention treatments such as hypolipidemic drug therapy such as statins and anti-hypertensive agents such as ACE inhibitors. They are already receiving glycemia lowering strategies such as Insulin, PPARγ agents, Metformin or sulfonylurea therapy. They also will receive an acceptable dose of a composition comprising a compound of the present invention in an acceptable carrier orally chronically for durations in excess of 12 months. In one study, 3,4-Methylenedioxy 6-nitro phenyl lipoate (INV-7465) or 3,4-Methylenedioxy phenyl lipoate (INV-7065) are administered to these individuals. The patients undergo the following measurements: HbA1C to assess glycemic control, urinary microalbuminura, blood pressure and lipid measurements. At the end of 12 months of treatment, there is lowering of HbA1C and urinary microalbuminuria. There is an improvement in VLDL cholesterol and a decrease in triglycerides with any of these treatments [(3,4-methylenedioxy phenyl acetate (INV 73); 3,4-methylenedioxy-6-nitrophenol (INV 74); 3,4-methylenedioxy-6-nitrophenyl acetate (INV 75); 3,4-Methylenedioxy 6-nitro phenyl lipoate (INV-7465) or 3,4-Methylenedioxy phenyl lipoate (INV-7065)].

[6] = tested on: Human Umbilical Vein Endothelial Cells (HUVECs); test: MTT cell toxicity assay; type: cell-based; details: HUVEC, dose range of 10 nM to 100 μM
Experimental: Cell Culture: All experiments were performed with cultured Human Umbilical Vein Endothelial Cells (HUVECs—Gibco, Invitrogen) and grown to confluence at 37° C. in a 5% CO2 humidified incubator, on tissue culture flasks previously coated with 1% gelatin in supplemented culture medium (M199 with 10% heat inactivated fetal calf serum, 100 U/ml penicillin, 100 μg/ml streptomycin, 2 mM glutamine, 10 mM HEPES, pH 7.4, heparin 12 I.U./ml, 1% retinal derived growth factor, Sigma). Following trypsin treatment, the cells were detached from the flasks and final mono-layers were prepared by seeding HUVECs on gelatin-precoated culture plates and then incubated for 24-48 h to ensure confluence. Cells up to the fourth passage were used for all experiments. Recombinant human TNF-α was purchased from R&D Systems (Minneapolis, Minn.).
Cell Toxicity Assays: Cellular toxicity was assessed by MTT [3-(4,5-dimethylthiazol-2-yl)-2,5-diphenyltetrazolium bromide] assay, a commercially available assay for assessment of cellular viability. INV-75 was added to HUVECs for 24 hours, and toxicity assays were performed at the end of this period. The MTT assay relies on the cellular reduction of positively charged tetrazolium salts to their intensely colored formazan product by mitochondrial dehydrogenases. Formazan production is decreased in the presence of impaired mitochondrial redox function and enhanced free radical production and may, therefore, be used as an index of cell viability responses to experimental interventions.
In short, after removing microtiter plates from the incubator, fresh medium containing a fixed volume of reconstituted MTT [3-(4,5-dimethylthiazol-2-yl)-2,5-diphenyltetrazlium bromide; final concentration: 0.5 mg/ml] was added to the wells; the plates were kept at 37° C. in a 5% CO2 environment for 2 h, and then the MTT solubilization solution provided by the manufacturer was added. The formazan product formed by the conversion of positively charged tetrazolium salts to the reduced state has low aqueous solubility and is present as purple crystals. Dissolving the formazan with a solubilization buffer (provided in kit) permits the convenient quantification of its formation. Optical density at OD 570 nm is then measured for each well on an absorbance plate reader. The within- and between-assay variability was 3 and 5%, respectively. Various concentrations of INV-75 was tested in cell based assays using the MTT assay, as described above. The concentrations tested ranged from 1 mM to 10 nM and the cells were exposed for over 24 hours in duration (FIG. 2).

CC(=O)Oc1ccc2c(c1)OCO2 [INV-73, 3,4-Methylenedioxyphenyl acetate]
plaque in the atherosclerotic coronary artery (IVUS) [1]: reduced | plaque in the atherosclerotic coronary artery (IVUS) [2]: reduced | VLDL cholesterol [3]: lowering | triglycerides [3]: decrease | preventing or reducing atherosclerosis (ultrasound, versus carrier alone) [4]: effective | VLDL cholesterol [5]: improvement | triglycerides [5]: decrease | cell toxicity results compared with those of INV-75 [6]: identical

O=[N+]([O-])c1cc2c(cc1O)OCO2 [INV-74, 3,4-Methylenedioxy-6-nitrophenol]
plaque in the atherosclerotic coronary artery (IVUS) [1]: reduced | plaque in the atherosclerotic coronary artery (IVUS) [2]: reduced | VLDL cholesterol [3]: lowering | triglycerides [3]: decrease | preventing or reducing atherosclerosis (ultrasound, versus carrier alone) [4]: effective | VLDL cholesterol [5]: improvement | triglycerides [5]: decrease | cell toxicity results compared with those of INV-75 [6]: identical
